Experimental data as given in US11919933B2, “Use of MYOG gene as target in preparation of drug for treating cardiomyocyte apoptosis-associated cardiovascular disease” (GUANGDONG BEATING ORIGIN REGENERATIVE MEDICINE CO., LTD., priority 2020, dated 2024).
Structures can show the parent of a compound that is named as a salt.

Legend:
Format in all cases: cell-based, human
[1] = tested on: MYOG expression in hiPSC-MYOG cells; assay: qPCR detection of MYOG mRNA expression levels after Dox induction; conditions: Dox 2 μg/mL
Description: 2.1 Induction: The expression of MYOG was induced by adding Dox (Sigma, D9891) at a final concentration of 2 μg/mL to STEMUP, and DMSO was used as a control. In the control group, only DMSO (denoted as C1) was added to STEMUP. In the experimental group, both DOX and DMSO were added to STEMUP, where DOX was first added to DMSO, and then a resulting mixture (denoted as C2) was added to STEMUP. A final concentration of DOX in STEMUP was 2 μg/mL, and the C1 and C2 were added at a same amount. 2.2 Total RNA extraction: The UN1Q-10 column Trizol total RNA extraction kit (Sangon Biotech, B511321-0100) was used to extract total RNA of the cells (a sample was treated with deoxyribonuclease I (DNase I, Sangon Biotech, B618252) for 30 min in advance). 2.3 Reverse transcription: RNA was reverse-transcribed with the reverse transcription kit iScript Reverse Transcription Supermix (Bio-Rad, 1708841). 2.4 qPCR detection of MYOG mRNA expression levels: According to the instructions of SsoAdvanced™ Universal SYBR® Green Supermix (Bio-Rad, 1725271), the PikoReal Real-Time PCR system (Thermo Fisher) was used to design primers with […] as an internal reference, and then MYOG expression levels in hiPSC and hiPSC-MYOG (Dox-induced group and DMSO control group) were detected. Sequences of the primers were as follows: […]

hiPSC-CMs [2] = assay: TUNEL apoptosis test of angiotensin II-treated hiPSC-CMs; conditions: angiotensin II 100 μM and 1 mM, 10 d
Description: (§1) 2.1 Induction of hiPSC-CM apoptosis with angiotensin II: Purified hiPSC-CMs were cultivated in a cardiomyocyte medium (MedChemExpress, HY-13948) with angiotensin II at different concentrations (1 nM, 10 nM, 100 nM, 1 μM, 10 μM, 100 μM, and 1 mM), and the angiotensin II-containing medium was changed every 2 days.
2.2.3 TUNEL test: The TdT in situ apoptosis detection kit (R&D Systems, 4812-30-K) was used to detect the apoptosis of cardiomyocytes treated with angiotensin II (1 nM, 1 μM, 100 μM, and 1 mM) and untreated with angiotensin II on day 10. Cardiomyocytes were digested, then added on a glass slide, and stained according to the kit instructions, and nuclei were labeled with DAPI.

hiPSC-CMs [3] = assay: PrestoBlue cell viability assay of angiotensin II-treated hiPSC-CMs; conditions: angiotensin II 100 μM and 1 mM, long-term treatment (6 d and 10 d)
Description: as §1
2.2.1 A cardiomyocyte viability was detected with the PrestoBlue cell viability assay reagent (Invitrogen, A13261) at 24 h, 48 h, 6 d, and 10 d, and results are shown in FIG. 3.

hiPSC-MYOG-CMs = assay: TUNEL apoptosis test of hiPSC-MYOG-CMs (Ang II / Dox groups); conditions: angiotensin II 1 mM, 6 d
Description: 5.1 Induction of hiPSC-MYOG-CM apoptosis with angiotensin II: Purified hiPSC-MYOG-CMs were divided into 4 groups (Ang II(+)&Dox(+), Ang II(+)&Dox(−), Ang II(−)&Dox(+), and Ang II(−)&Dox(−)) and then treated for 6 d with a Dox having a concentration of 2 μg/mL and an angiotensin II having a concentration of 1 mM.
5.3 Apoptosis assay: TUNEL test: The TdT in situ apoptosis detection kit (R&D Systems, 4812-30-K) was used to detect the apoptosis of cardiomyocytes in the 4 groups (Ang II(+)&Dox(+), Ang II(+)&Dox(−), Ang II(−)&Dox(+), and Ang II(−)&Dox(−)). Cardiomyocytes were digested, then added on a glass slide, and stained according to the kit instructions. Nuclei were labeled with DAPI.

hiPSC-CMs [4] = assay: Annexin V apoptosis assay (flow cytometry) of angiotensin II-treated hiPSC-CMs; conditions: angiotensin II 100 μM and 1 mM, 10 d
Description: as §1
2.2.2 The apoptosis of cardiomyocytes treated with angiotensin II (100 μM and 1 mM) and untreated with angiotensin II on day 10 was detected with the apoptosis assay kit Annexin V, Alexa Fluor™488 conjugate (Invitrogen, V13201). Cardiomyocytes were labeled with the apoptosis marker Annexin V and then assayed with a FACSAria™ II flow cytometer (BD).

Compound | expression level of MYOG in the Dox-induced group versus the DMSO control group [1] | proportion of apoptotic cells (TUNEL) (hiPSC-CMs [2]) | cell viability (hiPSC-CMs [3]) | apoptotic cell proportion relative to the control group (hiPSC-MYOG-CMs) [times] | proportion of apoptotic cells (Annexin V) (hiPSC-CMs [4])
C[C@H]1c2cccc(O)c2C(=O)C2=C(O)[C@]3(O)C(=O)C(C(N)=O)=C(O)[C@@H](N(C)C)[C@@H]3[C@@H](O)[C@@H]21 [Dox, doxycycline hydrochloride] | more than 100 times | – | – | – | –
angiotensin II (DRVYIHPF; Angiotensin-2; UniProt P01019 25-32, looked up) [common inducer for establishing cardiomyocyte apoptosis models] | – | increased significantly | decreased significantly | 2.01 | increased significantly
